Experimental data as given in ChEMBL document CHEMBL1909530, “Computational techniques are valuable tools for the discovery of protein-protein interaction inhibitors: the 14-3-3σ case” (Bioorg Med Chem Lett, 2011).
Substitutions are numbered along the chain they refer to. One block for each molecule: values may come before it. Active and inactive are the calls of the source. The rule behind the calls is not given here.

Columns and labels:
[1] = molecular target: T1, 14-3-3 protein sigma (Homo sapiens) (UniProt P31947); assay: Inhibition of 14-3-3sigma binding domain in human Ba/F3 cells expressing imatibib-sensitive wild type Bcr-Abl construct assessed as inhibition of 14-3-3sigma-c-Abl interaction; assay type: cell-based; conditions: BaF3
T1 sequence (whole entry): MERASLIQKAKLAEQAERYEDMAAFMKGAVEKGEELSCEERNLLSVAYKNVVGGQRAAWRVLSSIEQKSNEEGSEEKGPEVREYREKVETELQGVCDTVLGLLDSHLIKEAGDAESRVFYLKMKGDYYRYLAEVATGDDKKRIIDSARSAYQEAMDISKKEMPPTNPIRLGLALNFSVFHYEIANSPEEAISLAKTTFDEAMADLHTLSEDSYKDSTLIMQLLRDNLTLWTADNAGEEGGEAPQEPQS

[2] = molecular target: T1, 14-3-3 protein sigma (Homo sapiens); assay: Inhibition of 14-3-3sigma binding domain in human Ba/F3 cells expressing imatibib-resistant Bcr-Abl T315I mutant construct assessed as inhibition of 14-3-3sigma-c-Abl interaction; assay type: cell-based; conditions: BaF3
[3] = molecular target: T1, 14-3-3 protein sigma (Homo sapiens); assay: Inhibition of 14-3-3sigma in human Ba/F3 cells expressing imatinib-sensitive wild type Bcr-Abl construct assessed as cell survival; assay type: cell-based; conditions: BaF3
[4] = molecular target: T2, 14-3-3 protein sigma (Mus musculus) (UniProt O70456); assay: Inhibition of 14-3-3sigma in mouse 32D cells expressing imatinib-sensitive wild type Bcr-Abl construct assessed as cell survival; assay type: cell-based
T2 sequence (whole entry): T1 sequence (whole entry) with G28S, R82K, Q93R, E110G, N234S, Q244E

14-3-3 protein sigma = molecular target: T3, 14-3-3 protein sigma (Homo sapiens, UniProt P31947); assay: Binding affinity to histidine-tagged human recombinant 14-3-3sigma by transferred NOESY analysis
T3 sequence (P31947 whole entry): T1 sequence (whole entry)

[5] = molecular target: T1, 14-3-3 protein sigma (Homo sapiens); assay: Inhibition of 14-3-3sigma in human Ba/F3 cells expressing imatinib-sensitive wild type Bcr-Abl construct assessed as release of full-length c-Abl from cytoplasmic complex with 14-3-3sigma at 5 uM after 24 hrs by immunoprecipitation/immunoblot technique; assay type: cell-based; conditions: BaF3
[6] = molecular target: T1, 14-3-3 protein sigma (Homo sapiens); assay: Inhibition of 14-3-3sigma in human Ba/F3 cells expressing imatinib-sensitive wild type Bcr-Abl construct assessed as relocation of full-length c-Abl to mitochondrial membranes at 5 uM after 24 hrs by immunoprecipitation/immunoblot technique; assay type: cell-based; conditions: BaF3
[7] = molecular target: T1, 14-3-3 protein sigma (Homo sapiens); assay: Inhibition of 14-3-3sigma in human Ba/F3 cells expressing imatinib-sensitive wild type Bcr-Abl construct assessed as cleaved c-Abl at mitochondrial membranes at 5 uM after 24 hrs by immunoprecipitation/immunoblot technique; assay type: cell-based; conditions: BaF3
[8] = molecular target: T1, 14-3-3 protein sigma (Homo sapiens); assay: Inhibition of 14-3-3sigma in human Ba/F3 cells expressing imatinib-sensitive wild type Bcr-Abl construct assessed as nuclear import of full-length c-Abl at 5 uM after 24 hrs by immunoprecipitation/immunoblot technique; assay type: cell-based; conditions: BaF3
[9] = molecular target: T1, 14-3-3 protein sigma (Homo sapiens); conditions: BaF3, 1 uM
Description: Inhibition of 14-3-3sigma in human Ba/F3 cells expressing wild type Bcr-Abl construct assessed as release of full-length c-Abl from cytoplasmic complex with 14-3-3sigma at 1 uM after 24 hrs by immunoprecipitation/immunoblot technique

SMILES: Cc1c(NC(=O)c2cc(C(=O)O)ccc2C(=O)O)c(=O)n(-c2ccccc2)n1C
LD50 [1]: 1.04 µM
LD50 [2]: 1.47 µM

SMILES: Cc1ccc(-c2cc(-c3ccccc3)nc(N/N=C/c3cc([N+](=O)[O-])ccc3O)n2)cc1
LD50 [3]: 0.65 µM
LD50 [4]: 2.84 µM
LD50 [1]: 0.65 µM

SMILES: CCCCCCOC(=O)c1ccc(Nc2c([N+](=O)[O-])cc(C(=O)O)cc2[N+](=O)[O-])cc1
Kd (14-3-3 protein sigma): > 1000 nM
inhibition [5]: Active
inhibition [6]: Active
LD50 [1]: 1.41 µM
inhibition [7]: Active
inhibition [8]: Active
LD50 [2]: 1.7 µM

inhibition [9]: Active
SMILES: Cc1ccc(NC(=O)c2ccc(CN3CCN(C)CC3)cc2)cc1Nc1nccc(-c2cccnc2)n1
